Results as given in ChEMBL document CHEMBL1148954, “Two new cytotoxic tetracyclic tetraterpenoids from the soft coral Sarcophyton tortuosum” (J Nat Prod, 2004).
Values after ≈ are worked out from the molar mass of the structure shown.

Legend:
[1] = Cytotoxicity against human CNE2 cells by MTT assay; type: functional, cell-based; conditions: CNE-2
P388 = assay: Cytotoxicity against mouse P388 cells by MTT assay; type: functional, cell-based

SMILES	IC50 [1]	IC50 (P388)
COC(=O)[C@@]12CC(=O)[C@@H](C(C)C)CC(=O)[C@@H](C)CCC[C@@H](C)CC(=O)[C@@H]1CC(C)=C1[C@H]2/C=C(\C)CC[C@H]2O[C@@H](CC=C2C)[C@](C)(O)C[C@@H]1O [METHYL TORTUOATE A]	22.7 µg/mL (≈ 33.2 µM)	3.5 µg/mL (≈ 5.12 µM)
COC(=O)[C@@]12CC(=O)[C@@H](C(C)C)CC(=O)[C@@H](C)CCC[C@@H](C)CC(=O)[C@@H]1CC(C)=C1[C@@H]3C[C@@](C)(O)[C@H](CC[C@@H](C)C(=O)CC/C(C)=C/[C@H]12)O3 [METHYL TORTUOATE B]	24.7 µg/mL (≈ 36.2 µM)	5 µg/mL (≈ 7.32 µM)
